Measured values from patent US20250320279A1, “UNGULATE-DERIVED POLYCLONAL IMMUNOGLOBULIN SPECIFIC FOR INFLUENZA VIRUS AND USES THEREOF” (priority 2021, published 2025).

System: oseltamivir-resistant influenza A/Hong Kong/2369/2009 (H1N1pdm) H275Y
Parameters: species or system BALB/c mice
Conditions: mouse, in vivo

CCOC(=O)C1=C[C@@H](OC(CC)CC)[C@H](NC(C)=O)[C@@H](N)C1 [oseltamivir]
protection from weight loss (mean body weights): did not protect mice from weight loss
